In patent US11761894B2, “Silicon-rhodamine fluorescent probe containing hydrophobic group and use thereof” (AJOU UNIVERSITY INDUSTRY—ACADEMIC COOPERATION FOUNDATION, priority 2019, dated 2023):

Legend:
[1] = Photophysical properties (excitation/emission wavelength, absolute quantum yield, fluorescence intensity in PBS); format: physicochemical; settings: for Φ (quantum yield): absolute quantum yield
Description: All reactions were carried out under an atmosphere of nitrogen or argon in air-dried glassware with magnetic stirring. Air- and/or moisture-sensitive liquids were transferred with syringe. Organic solutions were concentrated by rotary evaporation at 25-60° C. at 15-30 torr. All solvents and common materials were purchased from suppliers and used without further purification. Column chromatography was carried out as “Flash Chromatography” using Biotage MPLC machine. ^1H NMR and ^13C NMR data were recorded on an JEOL ECZ-600R Magnetic Resonance System (600 MHz) in Ajou University. Recorded shifts are reported in parts per million (6): Chemical shift, multiplicity (s=singlet, d=doublet, t=triplet, q=quartet, m=multiplet, br=broad), coupling constant (J, Hz) and integration. Low resolution mass spectrometry (LRMS) was obtained by LC/MS system, Finnigan MSQplus Surveyer (Thermo Scientific) or 6120 Quadrupole LC/MS (Agilent Technologies). The progress of reaction was monitored using thin layer chromatography (TLC) (silica gel 60, F254 0.25 mm), and components were visualized by observation under UV light (254 and 365 nm) or by treating the TLC plates with Phosphonolybdic acid (PMA), KMnO4, or ninhydrin followed by heating. Cell culture reagents including fatal bovine serum, culture media, and antibiotic-antimycotic solution were purchased from GIBCO. MitoTracker Green, and Hoechst were purchased from Invitrogen. The culture dish and glassbottom dish were purchased from CORNING, and SPL. All spectra experiments were performed in a 1×1 cm quartz cuvette. Fluorescence emission spectra were recorded on JASCO FP-8200 spectrofluorometer, and UV absorption spectra were recorded on JASCO V-670 spectrophotometer. Absolute quantum yield was measured by QE-2000 (Otsuka Electronics).

[2] = system: mitochondria in HeLa cells; test: Colocalization test of SiR-Mito probes with MitoTracker green in HeLa cells; format: cell-based, human; settings: 1 μM probe, 1 h; for Mitochondria Targeting (Pearson coefficient for colocalization with MitoTracker green): 0.5 μM MitoTracker green
Description: HeLa cells were incubated with cell culture media containing 1 μM SiR-Mito probe, and 0.5 μM MitoTracker green. After 1 h, HeLa cells were washed three times with 1×PBS for and observed with a LEICA DMi8 fluorescent microscope. Each experiment was observed using 512-542 nm emitter for FITC channel (for MitoTracker Green), and 663-738 nm exciter, 545-625 nm emitter for Cy5 channel (for SiR-Mito probes). Scale bar: 50 μm.
HeLa human cervical cancer cells were cultured in Dulbecco's modified eagle media (DMEM, GIBCO) containing 10% fetal bovine serum (FBS, GIBCO) and 1% penicillin (GIBCO) at 37° C. in a humidified incubator with 5% CO2. For the fluorescence microscope imaging, cells were harvested using TrypLE™ Express (GIBCO) and resuspended in fresh culture medium. Harvested cells with a density of 4.0×10^3 cells/well were seeded on a HeLa 96 black well plate (CORNING) and incubated for 24 h. Cells were incubated with SiR-Mito probes (1 μM) and MitoTracker Green (0.5 μM) for 60 min. After the incubation, cells were washed with 1×PBS for three times and observed with inverted fluorescence microscope (DMi8, LEICA). Each experiment was observed using a 325-375 nm exciter, 435-485 nm emitter for DAPI channel, 460-500 nm exciter, 512-542 nm emitter for FITC channel, 541-551 nm exciter, 565-605 nm emitter for Rhodamine channel, and 663-738 nm exciter, 545-625 nm emitter for Cy5 channel.
To determine the effect of probe hydrophobicity on the efficiency of targeting to mitochondria, the Pearson coefficient for colocalization of SiR-Mito probes and MitoTracker green, a commercial fluorescent mitochondrial bioprobe, was measured (FIG. 1). For the colocalization test, human cervical cancer HeLa cells were seeded on 96-well plates and incubated for 1 h with 1 μM of each different SiR-Mito probe and 0.5 μM MitoTracker green, washed briefly with 1×PBS, and imaged with a LEICA DMi8 fluorescent microscope using the 40× objective.

Molecule	Em (emission wavelength) [1] [nm]	Ex (excitation wavelength) [1] [nm]	Φ (quantum yield) [1]	Mitochondria Targeting (Pearson coefficient for colocalization with MitoTracker green) [2]	Intracellular fluorescence (SiR channel) [2]
Cc1ccc(C(=O)NC(C)(C)CC(C)(C)C)cc1C1=C2C=CC(=[N+](C)C)C=C2[Si](C)(C)c2cc(N(C)C)ccc21 [SiR-Mito 7, N-(7-(dimethylamino)-5,5-dimethyl-10-(2-methyl-5-((2,4,4-trimethylpentan-2-yl)carbamoyl)phenyl)dibenzo[b,e]silin-3(5H)-ylidene)-N-methylmethanaminium]	667	650	0.29	*** (*** 0.9 ≤ R)	–
CCCCNC(=O)c1ccc(C)c(C2=C3C=CC(=[N+](C)C)C=C3[Si](C)(C)c3cc(N(C)C)ccc32)c1 [SiR-Mito 3, N-(10-(5-(butylcarbamoyl)-2-methylphenyl)-7-(dimethylamino)-5,5-dimethyldibenzo[b,e]silin-3(5H)-ylidene)-N-methylmethanaminium]	665	652	0.29	–	–
N-(10-(5-((cyclohexylmethyl) carbamoyl)-2-methylphenyl)-7 (dimethylamino)-5,5-dimethyldibenzo[b,e]silin-3(5H)-ylidene)-N-methylmethanaminium [SiR-Mito 5]	669	651	0.29	* (* 0.7 ≤ R < 0.8)	–
CCNC(=O)c1ccc(C)c(C2=C3C=CC(=[N+](C)C)C=C3[Si](C)(C)c3cc(N(C)C)ccc32)c1 [SiR-Mito 2, N-(7-(dimethylamino)-10-(5-(ethylcarbamoyl)-2-methylphenyl)-5,5-dimethyldibenzo[b,e]silin-3(5H)-ylidene)-N-methylmethanaminium]	668	662	0.40	* (* 0.7 ≤ R < 0.8)	–
CCCCCCC(C)NC(=O)c1ccc(C)c(C2=C3C=CC(=[N+](C)C)C=C3[Si](C)(C)c3cc(N(C)C)ccc32)c1 (centres unmarked) [SiR-Mito 10, N-(7-(dimethylamino)-5,5-dimethyl-10-(2-methyl-5-(octan-2-ylcarbamoyl)phenyl)dibenzo[b,e]silin-3(5H)-ylidene)-N-methylmethanaminium]	667	654	0.27	*** (*** 0.9 ≤ R)	–
Cc1ccc(C(=O)NCCc2ccccc2)cc1C1=C2C=CC(=[N+](C)C)C=C2[Si](C)(C)c2cc(N(C)C)ccc21 [SiR-Mito 6, N-(7-(dimethylamino)-5,5-dimethyl-10-(2-methyl-5-(phenethylcabamoyl)phenyl)dibenzo[b,e]silin-3(5H)-ylidene)-N-methylmethanaminium]	668	651	0.30	*** (*** 0.9 ≤ R)	–
Cc1ccc(C(=O)NCc2ccccc2)cc1C1=C2C=CC(=[N+](C)C)C=C2[Si](C)(C)c2cc(N(C)C)ccc21 [SiR-Mito 4, N-(10-(5-(benzylcarbamoyl)-2-methylphenyl)-7-(dimethylamino)-5,5-dimethyldibenzo[b,e]silin-3(5H)-ylidene)-N-methylmethanaminium]	666	651	0.30	* (* 0.7 ≤ R < 0.8)	–
Cc1ccc(C(=O)NCCC2CCCCC2)cc1C1=C2C=CC(=[N+](C)C)C=C2[Si](C)(C)c2cc(N(C)C)ccc21 [SiR-Mito 9, N-(10-(5-((2-cyclohexylethyl)carbamoyl)-2-methylphenyl)-7-(dimethylamino)-5,5-dimethyldibenzo[b,e]silin-3(5H)-ylidene)-N-methylmethanaminium]	666	652	0.26	*** (*** 0.9 ≤ R)	–
Cc1ccc(C(=O)NCCO)cc1C1=C2C=CC(=[N+](C)C)C=C2[Si](C)(C)c2cc(N(C)C)ccc21 [SiR-Mito 1, N-(7-(dimethylamino)-10-(5-((2-hydroxyethyl)carbamoyl)-2-methylphenyl)-5,5-dimethyldibenzo[b,e]silin-3(5H)-ylidene)-N-methylmethanaminium]	668	661	0.32	–	absence of fluorescence signal
